Results: patent US10399992B2, “Process for preparing AD-35” (Zhejiang Hisun Pharmaceutical Co., Ltd., priority 2016, dated 2019)

Key:
acetylcholinesterase = acetylcholinesterase (Homo sapiens, UniProt P22303); test: inhibiting acetylcholinesterase in vitro; assay type: biochemical; conditions: compared with donepezil
Morris water maze test = assay type: in vivo; conditions: compared with donepezil
TNF-α = test: rat model of Alzheimer's disease induced by Aβ25-35: TNF-α production and release; assay type: in vivo
IL-1β = test: rat model of Alzheimer's disease induced by Aβ25-35: IL-1β production and release; assay type: in vivo
nerve cells = test: rat model of Alzheimer's disease induced by Aβ25-35: toxicity of Aβ25-35 to nerve cells; assay type: in vivo
[1] = chelation of transition metal ions in vitro; assay type: physicochemical
[2] = Phase 1 Clinical Single Ascending Dose study (SAD); assay type: in vivo; conditions: subjects; 90 mg in a single dose
[3] = acute toxicity test in mice; conditions: compared with donepezil

Chain of acetylcholinesterase (P22303 32-614): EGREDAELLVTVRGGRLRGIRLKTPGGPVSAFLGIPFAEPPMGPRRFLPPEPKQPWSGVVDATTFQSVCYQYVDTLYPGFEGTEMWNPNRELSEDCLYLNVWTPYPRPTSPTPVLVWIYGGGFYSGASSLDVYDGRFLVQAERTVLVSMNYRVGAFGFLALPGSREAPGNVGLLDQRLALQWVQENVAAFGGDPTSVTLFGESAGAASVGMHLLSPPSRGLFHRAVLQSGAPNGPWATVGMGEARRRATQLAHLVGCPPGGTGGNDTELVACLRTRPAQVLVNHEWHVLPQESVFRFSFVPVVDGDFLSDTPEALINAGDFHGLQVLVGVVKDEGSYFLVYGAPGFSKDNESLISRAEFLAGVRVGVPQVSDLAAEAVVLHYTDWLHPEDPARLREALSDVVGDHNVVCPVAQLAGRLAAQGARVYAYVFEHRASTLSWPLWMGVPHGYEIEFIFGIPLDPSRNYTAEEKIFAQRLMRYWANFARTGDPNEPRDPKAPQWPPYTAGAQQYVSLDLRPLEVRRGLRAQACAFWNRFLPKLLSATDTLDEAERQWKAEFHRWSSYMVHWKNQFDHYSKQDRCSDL

Compound: O=C1c2cc3c(cc2C2(CC2)N1CCC1CCN(Cc2ccccn2)CC1)OCO3 [AD-35, 6-[2-[1-(2-pyridylmethyl)-4-piperidinyl]ethyl]spiro[[1,3]dioxolo[4,5-f]isoindole-7,1′-cyclopropane]-5-one phosphate]
- activity of inhibiting acetylcholinesterase in vitro relative to donepezil (acetylcholinesterase): about one-tenth of the activity of donepezil
- efficacy in the Morris water maze test (improving memory and learning ability) (Morris water maze test): comparable efficacy to that of donepezil
- production and release of pro-inflammatory cytokine TNF-α (TNF-α): significantly inhibit
- production and release of pro-inflammatory cytokine IL-1β (IL-1β): significantly inhibit
- toxicity of Aβ25-35 to nerve cells (nerve cells): greatly reduces the toxicity of Aβ25-35 to nerve cells
- ability to chelate transition metal ions such as Cu^2+ [1]: exhibits a certain ability to chelate transition metal ions
- adverse reactions [2]: did not develop adverse reactions
- acute toxicity [3]: much less toxic than donepezil
